This is an account of results in patent US10172868B2, “Substituted quinazolines for inhibiting kinase activity” (NeuPharma, Inc., priority 2013, dated 2019).

One experiment concerns the target EGFR (ErbB1) T790M L858R (Homo sapiens (Human), UniProt P00533, L858R/T790M). Description: Z'-LYTE kinase inhibition assay, EGFR L858R/T790M. It is filed as biochemical. The note with it: read-out: % inhibition against EGFR L858R/T790M (Compound at 0.0137 μM). The method, then: Inhibitory activities of compounds against BTK, EGFR and EGFR mutants (EGFR L858R, EGFR T790M, EGFR L858R/T790M), FGFR1, FGFR2, JAK2, JAK3 and KDR were measured by Invitrogen using Z'-LYTE® Method as briefly described in the following. Test Compounds are screened in 1% DMSO (final) in the well. For 10 point titrations, 3-fold serial dilutions are conducted from the starting concentration. All ATP Solutions are diluted to a 4× working concentration in Kinase Buffer (50 mM HEPES pH 7.5, 0.01% BRIJ-35, 10 mM MgCl2, 1 mM EGTA). Peptide/Kinase Mixtures are diluted to a 2× working concentration in the appropriate Kinase Buffers as described below. (iv) Peptide/Kinase Mixtures for Measurement of EGFR (ErbB1) T790M L858R: The 2×EGFR (ErbB1) […] mixture is prepared in 50 mM HEPES pH 6.5, 0.01% BRIJ-35, 10 mM MgCl2, 1 mM EGTA, 0.02% NaN3. […] After the 1 hour Kinase Reaction incubation, 5 μL of a 1:64 dilution of Development Reagent B is added. Reaction starts by 30-second shaking of mixture consisting of 2.5 μL 4× test compound, […] 2× kinase reaction mixture and 2.5 μL 4×ATP Solution on Bar-coded Corning, low volume NBS, black 384-well plate (Corning Cat. #3676). Then the mixture is incubated for 60-minute at room temperature for the kinase reaction, followed by addition of 5 μL of a 1:1024 dilution of development reagent A and 30-second plate shake. The mixture is then incubated for another 60-minute at room temperature for development reaction. Finally fluorescence is read by plate reader. To determine IC50 of a compound against EGFR, EGFR mutant and other kinases, a series of concentrations of the compound were tested for the inhibition.

The target in another experiment is EGFR (ErbB1) (Homo sapiens (Human), UniProt P00533). Description: Z'-LYTE kinase inhibition assay, EGFR. The format is biochemical. The note with it: read-out: % inhibition against EGFR (Compound at 0.041 μM). As to the method:
Inhibitory activities of compounds against BTK, EGFR and EGFR mutants (EGFR L858R, EGFR T790M, EGFR L858R/T790M), FGFR1, FGFR2, JAK2, JAK3 and KDR were measured by Invitrogen using Z'-LYTE® Method as briefly described in the following. Test Compounds are screened in 1% DMSO (final) in the well. For 10 point titrations, 3-fold serial dilutions are conducted from the starting concentration. All ATP Solutions are diluted to a 4× working concentration in Kinase Buffer (50 mM HEPES pH 7.5, 0.01% BRIJ-35, 10 mM MgCl2, 1 mM EGTA). Peptide/Kinase Mixtures are diluted to a 2× working concentration in the appropriate Kinase Buffers as described below. (i) Peptide/Kinase Mixtures for Measurement of EGFR (ErbB1): The 2×EGFR (ErbB1)/[…] mixture is prepared in 50 mM HEPES pH 7.5, 0.01% BRIJ-35, 10 mM MgCl2. 4 mM MnCl2, 1 mM EGTA, 2 mM DTT. The final 10 μL Kinase Reaction consists of 1.1-5.25 ng EGFR (ErbB1) and 2 μM […] in 50 mM HEPES pH 7.5, 0.01% BRIJ-35, 10 mM MgCl2, 2 mM MnCl2. 1 mM EGTA, 1 mM DTT. After the 1 hour Kinase Reaction incubation, 5 μL of a 1:64 dilution of Development Reagent B is added. Reaction starts by 30-second shaking of mixture consisting of 2.5 μL 4× test compound, […] 2× kinase reaction mixture and 2.5 μL 4×ATP Solution on Bar-coded Corning, low volume NBS, black 384-well plate (Corning Cat. #3676). Then the mixture is incubated for 60-minute at room temperature for the kinase reaction, followed by addition of 5 μL of a 1:1024 dilution of development reagent A and 30-second plate shake. The mixture is then incubated for another 60-minute at room temperature for development reaction. Finally fluorescence is read by plate reader. To determine IC50 of a compound against EGFR, EGFR mutant and other kinases, a series of concentrations of the compound were tested for the inhibition.

A further experiment concerns H1975 cells. Description: Inhibition of cancer cell growth, MTT assay, H1975. The conditions noted are these: Homo sapiens, NCI-H1975, 72 h, read-out: IC50 in H1975 cells. On the technique in general: Tetrazolium dyes change colour on reduction, which living cells bring about.

EGFR (ErbB1), sequence (P00533 25-1210): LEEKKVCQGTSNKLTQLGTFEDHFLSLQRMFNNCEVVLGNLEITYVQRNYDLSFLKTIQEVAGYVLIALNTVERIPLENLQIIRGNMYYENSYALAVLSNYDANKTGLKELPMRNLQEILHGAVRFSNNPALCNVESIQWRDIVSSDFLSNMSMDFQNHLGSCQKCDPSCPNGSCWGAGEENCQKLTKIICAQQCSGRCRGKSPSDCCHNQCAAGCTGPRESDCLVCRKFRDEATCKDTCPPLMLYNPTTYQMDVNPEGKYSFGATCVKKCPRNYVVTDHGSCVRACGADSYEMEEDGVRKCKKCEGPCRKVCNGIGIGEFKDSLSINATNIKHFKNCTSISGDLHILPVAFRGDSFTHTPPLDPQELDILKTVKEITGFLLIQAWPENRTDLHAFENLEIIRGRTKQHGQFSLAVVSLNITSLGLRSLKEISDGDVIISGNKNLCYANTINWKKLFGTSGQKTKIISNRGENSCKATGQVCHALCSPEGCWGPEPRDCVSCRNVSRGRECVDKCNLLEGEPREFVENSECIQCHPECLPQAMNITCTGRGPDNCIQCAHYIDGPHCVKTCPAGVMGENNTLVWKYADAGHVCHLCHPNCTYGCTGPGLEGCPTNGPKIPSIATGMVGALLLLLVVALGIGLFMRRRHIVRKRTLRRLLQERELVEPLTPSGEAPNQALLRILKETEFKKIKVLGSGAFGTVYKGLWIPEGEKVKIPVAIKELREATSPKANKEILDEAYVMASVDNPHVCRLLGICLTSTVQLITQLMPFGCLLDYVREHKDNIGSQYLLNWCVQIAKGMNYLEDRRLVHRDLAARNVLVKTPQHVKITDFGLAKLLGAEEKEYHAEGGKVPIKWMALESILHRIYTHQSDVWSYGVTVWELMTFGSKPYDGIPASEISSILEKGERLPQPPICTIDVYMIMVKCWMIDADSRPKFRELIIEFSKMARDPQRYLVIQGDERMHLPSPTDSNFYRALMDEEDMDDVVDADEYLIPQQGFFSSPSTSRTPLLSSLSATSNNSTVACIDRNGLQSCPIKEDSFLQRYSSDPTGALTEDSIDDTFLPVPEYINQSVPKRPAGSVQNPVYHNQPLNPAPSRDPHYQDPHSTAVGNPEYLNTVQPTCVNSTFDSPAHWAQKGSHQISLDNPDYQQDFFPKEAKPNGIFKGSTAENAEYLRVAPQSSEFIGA
EGFR (ErbB1) T790M L858R, sequence (P00533 25-1210 T790M/L858R): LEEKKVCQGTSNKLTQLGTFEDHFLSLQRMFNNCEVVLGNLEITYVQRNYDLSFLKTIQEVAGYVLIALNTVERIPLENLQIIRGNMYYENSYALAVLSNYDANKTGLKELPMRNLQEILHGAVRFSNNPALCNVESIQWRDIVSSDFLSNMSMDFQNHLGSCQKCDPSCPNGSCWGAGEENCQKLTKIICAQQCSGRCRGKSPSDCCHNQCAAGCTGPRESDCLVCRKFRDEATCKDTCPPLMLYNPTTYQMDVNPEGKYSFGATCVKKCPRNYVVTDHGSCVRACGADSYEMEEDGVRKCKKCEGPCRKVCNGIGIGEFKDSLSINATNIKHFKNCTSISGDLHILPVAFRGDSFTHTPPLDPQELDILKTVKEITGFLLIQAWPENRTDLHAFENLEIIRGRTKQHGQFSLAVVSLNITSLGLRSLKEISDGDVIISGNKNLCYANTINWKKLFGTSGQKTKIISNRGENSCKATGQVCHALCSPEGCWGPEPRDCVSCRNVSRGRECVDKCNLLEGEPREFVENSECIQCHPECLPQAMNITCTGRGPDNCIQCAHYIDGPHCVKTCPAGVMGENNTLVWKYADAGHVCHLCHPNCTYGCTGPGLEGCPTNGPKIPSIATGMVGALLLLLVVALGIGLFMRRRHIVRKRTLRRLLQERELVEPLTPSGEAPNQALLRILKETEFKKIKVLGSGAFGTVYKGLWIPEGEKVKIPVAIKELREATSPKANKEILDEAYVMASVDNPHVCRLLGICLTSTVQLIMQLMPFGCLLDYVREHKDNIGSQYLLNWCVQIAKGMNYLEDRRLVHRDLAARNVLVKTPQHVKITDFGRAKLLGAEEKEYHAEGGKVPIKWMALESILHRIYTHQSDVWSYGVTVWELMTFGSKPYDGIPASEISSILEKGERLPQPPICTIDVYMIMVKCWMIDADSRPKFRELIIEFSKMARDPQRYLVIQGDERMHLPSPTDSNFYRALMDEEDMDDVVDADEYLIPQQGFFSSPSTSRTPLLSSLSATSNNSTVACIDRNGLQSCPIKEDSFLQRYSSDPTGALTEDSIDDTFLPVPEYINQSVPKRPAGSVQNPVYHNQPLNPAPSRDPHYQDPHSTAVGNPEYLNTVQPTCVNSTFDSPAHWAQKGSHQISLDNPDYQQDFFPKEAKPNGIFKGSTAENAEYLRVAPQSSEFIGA

One may read the IC50 as the point on the concentration scale where inhibition reaches its midpoint. As to `C=CC(=O)Nc1cccc(-c2cccc3cnc(Nc4ccc(N5CCN(C)CC5)cc4C(=O)OC)nc23)c1` [Example C104, methyl 2-((8-(3-acrylamidophenyl)quinazolin-2-yl)amino)-5-(4-methylpiperazin-1-yl)benzoate], on EGFR (ErbB1) T790M L858R, the inhibition at 0.0137 µM is less than 50%. The inhibition at 0.041 µM on EGFR (ErbB1) was less than 50%. Moreover, the IC50 with H1975 cells is greater than 500 nM.
Take `C=CC(=O)Nc1cccc(-c2cccc3cnc(Nc4ccc(N[C@H]5CCN(C(C)=O)C5)cc4)nc23)c1` [Example C128, (S)-N-(3-(2-((4-((1-acetylpyrrolidin-3-yl)amino)phenyl)amino)quinazolin-8-yl)phenyl)acrylamide]: the inhibition at 0.0137 µM at EGFR (ErbB1) T790M L858R was less than 50%. In addition, the inhibition at 0.041 µM at EGFR (ErbB1) is less than 50%. The IC50 in the experiment with H1975 cells was less than 100 nM.
For the compound `C=CC(=O)Nc1cccc(-c2cccc3cnc(Nc4ccc(N[C@@H]5CCN(C(C)=O)C5)cc4)nc23)c1` [Example C130, (R)-N-(3-(2-((4-((1-acetylpyrrolidin-3-yl)amino)phenyl)amino)quinazolin-8-yl)phenyl)acrylamide], at EGFR (ErbB1) T790M L858R, the inhibition at 0.0137 µM is less than 50%. Besides, the inhibition at 0.041 µM at EGFR (ErbB1) is less than 50%. In addition, the IC50 in the experiment with H1975 cells was less than 100 nM.
Turning to `C=CC(=O)Nc1cccc(-c2cccc3cnc(Nc4ccc(O[C@H]5CCN(C(C)=O)C5)cc4)nc23)c1` [Example C131, (S)-N-(3-(2-((4-((1-acetylpyrrolidin-3-yl)oxy)phenyl)amino)quinazolin-8-yl)phenyl)acrylamide], the inhibition at 0.0137 µM on EGFR (ErbB1) T790M L858R was less than 50%. Moreover, on EGFR (ErbB1), the inhibition at 0.041 µM was less than 50%. Moreover, the IC50 with H1975 cells is less than 100 nM.
Take `C=CC(=O)Nc1cc(-c2cccc3cnc(Nc4ccc(N5CCN(C)CC5)cc4)nc23)n[nH]1` [Example C132, N-(3-(2-((4-(4-methylpiperazin-1-yl)phenyl)amino)quinazolin-8-yl)-1H-pyrazol-5-yl)acrylamide]: the inhibition at 0.0137 µM on EGFR (ErbB1) T790M L858R is less than 50%. For the same compound, at EGFR (ErbB1), the inhibition at 0.041 µM was less than 50%. Besides, the IC50 with H1975 cells lay in the range of 100 to 500 nM.
As for `C=CC(=O)Nc1cccc(-c2cccc3cnc(Nc4ccc(O[C@@H]5CCN(C(C)=O)C5)cc4)nc23)c1` [Example C133, (R)-N-(3-(2-((4-((1-acetylpyrrolidin-3-yl)oxy)phenyl)amino)quinazolin-8-yl)phenyl)acrylamide], the inhibition at 0.0137 µM on EGFR (ErbB1) T790M L858R is less than 50%. Moreover, the inhibition at 0.041 µM on EGFR (ErbB1) is less than 50%. For the same compound, the IC50 in the experiment with H1975 cells fell in the range of 100 to 500 nM.
On to `C=CC(=O)Nc1cccc(-c2cccc3cnc(Nc4ccc(NCCF)cc4)nc23)c1` [Example C134, N-(3-(2-((4-((2-fluoroethyl)amino)phenyl)amino)quinazolin-8-yl)phenyl)acrylamide], for which the inhibition at 0.0137 µM on EGFR (ErbB1) T790M L858R was less than 50%. The inhibition at 0.041 µM at EGFR (ErbB1) is less than 50%. Also, in the experiment on H1975 cells, the IC50 is less than 100 nM.
Take `C=CC(=O)Nc1cccc(-c2cccc3cnc(Nc4ccc(NCC(F)F)cc4)nc23)c1` [Example C135, N-(3-(2-((4-((2,2-difluoroethyl)amino)phenyl)amino)quinazolin-8-yl)phenyl)acrylamide]: the inhibition at 0.0137 µM on EGFR (ErbB1) T790M L858R was less than 50%. For the same compound, the inhibition at 0.041 µM at EGFR (ErbB1) was less than 50%. In the experiment on H1975 cells, the IC50 is less than 100 nM.
Regarding `C=CC(=O)Nc1cccc(-c2cccc3cnc(Nc4ccc(N5CCN(CC(C)(C)O)CC5)c(F)c4)nc23)c1` [Example C143, N-(3-(2-((3-fluoro-4-(4-(2-hydroxy-2-methylpropyl)piperazin-1-yl)phenyl)amino)quinazolin-8-yl)phenyl)acrylamide], the inhibition at 0.0137 µM at EGFR (ErbB1) T790M L858R is greater than 50%. Also, the inhibition at 0.041 µM on EGFR (ErbB1) is less than 50%. Further, in the experiment with H1975 cells, the IC50 was less than 100 nM.
The matching figures for `C=CC(=O)Nc1cccc(-c2cccc3cnc(Nc4ccc(OC5CCN(CCO)CC5)cc4F)nc23)c1` [Example C144, N-(3-(2-((2-fluoro-4-((1-(2-hydroxyethyl)piperidin-4-yl)oxy)phenyl)amino)quinazolin-8-yl)phenyl)acrylamide]: greater than 50%, greater than 50% and less than 100 nM.
The matching figures for `C=CC(=O)Nc1cccc(-c2cccc3cnc(Nc4cc(F)c(N5CCN(C)CC5)c(F)c4)nc23)c1` [Example C146, N-(3-(2-((3,5-difluoro-4-(4-methylpiperazin-1-yl)phenyl)amino)quinazolin-8-yl)phenyl)acrylamide]: greater than 50%, less than 50% and less than 100 nM.
For the compound `C=CC(=O)Nc1cccc(-c2cccc3cnc(Nc4c(F)cc(N5CCN(C)CC5)cc4F)nc23)c1` [Example C148, N-(3-(2-((2,6-difluoro-4-(4-methylpiperazin-1-yl)phenyl)amino)quinazolin-8-yl)phenyl)acrylamide], the inhibition at 0.0137 µM at EGFR (ErbB1) T790M L858R is less than 50%. Further, on EGFR (ErbB1), the inhibition at 0.041 µM is less than 50%. Besides, in the experiment with H1975 cells, the IC50 is less than 100 nM.
Turning to `C=CC(=O)Nc1cccc(-c2cccc3cnc(Nc4ccc(N5CCN(CC(C)(C)O)CC5)cc4F)nc23)c1` [Example C149, N-(3-(2-((2-fluoro-4-(4-(2-hydroxy-2-methylpropyl)piperazin-1-yl)phenyl)amino)quinazolin-8-yl)phenyl)acrylamide], the inhibition at 0.0137 µM at EGFR (ErbB1) T790M L858R is less than 50%. The inhibition at 0.041 µM at EGFR (ErbB1) was less than 50%. Further, the IC50 in the experiment on H1975 cells was less than 100 nM.
Take `C=CC(=O)Nc1cccc(-c2cccc3cnc(Nc4ccc(N5CCN(CC(N)=O)CC5)cc4)nc23)c1` [Example C150, N-(3-(2-((4-(4-(2-amino-2-oxoethyl)piperazin-1-yl)phenyl)amino)quinazolin-8-yl)phenyl)acrylamide]: at EGFR (ErbB1) T790M L858R, the inhibition at 0.0137 µM was less than 50%. Further, the inhibition at 0.041 µM at EGFR (ErbB1) is less than 50%. Also, in the experiment on H1975 cells, the IC50 was less than 100 nM.
Consider `C=CC(=O)Nc1cccc(-c2cccc3cnc(Nc4ccc(N5CCN(CCOC)CC5)cc4F)nc23)c1` [Example C153, N-(3-(2-((2-fluoro-4-(4-(2-methoxyethyl)piperazin-1-yl)phenyl)amino)quinazolin-8-yl)phenyl)acrylamide], for which, at EGFR (ErbB1) T790M L858R, the inhibition at 0.0137 µM was less than 50%. Besides, the inhibition at 0.041 µM at EGFR (ErbB1) is less than 50%. The half-maximal inhibitory concentration (IC50) in the experiment with H1975 cells was less than 100 nM.
Take `C=CC(=O)Nc1cccc(-c2cccc3cnc(Nc4ccc(N5CCN(CC(N)=O)CC5)cc4F)nc23)c1` [Example C154, N-(3-(2-((4-(4-(2-amino-2-oxoethyl)piperazin-1-yl)-2-fluorophenyl)amino)quinazolin-8-yl)phenyl)acrylamide]: on EGFR (ErbB1) T790M L858R, the inhibition at 0.0137 µM is less than 50%. The inhibition at 0.041 µM on EGFR (ErbB1) was less than 50%. In addition, the IC50 in the experiment with H1975 cells was in the range of 100 to 500 nM.
With `C=CC(=O)Nc1cccc(-c2cccc3cnc(Nc4ccc(N5CCN(CCOC)CC5)c(F)c4)nc23)c1` [Example C155, N-(3-(2-((3-fluoro-4-(4-(2-methoxyethyl)piperazin-1-yl)phenyl)amino)quinazolin-8-yl)phenyl)acrylamide], the inhibition at 0.0137 µM on EGFR (ErbB1) T790M L858R is greater than 50%. For the same compound, the inhibition at 0.041 µM on EGFR (ErbB1) was less than 50%. For the same compound, the half-maximal inhibitory concentration (IC50) with H1975 cells is less than 100 nM.
